# Measurements taken from patent publication US20090105283A1, “3-HYDROQUINAZOLIN-4-ONE DERIVATIVES FOR USE AS STEAROYL CoA DESATURASE INHIBITORS” (priority 2007, published 2009).
# Target: T1, stearoyl-CoA desaturase (SCD) (Rattus norvegicus, UniProt P07308)
# T1 construct: The microsomes were quickly thawed and added to assay buffer so that a concentration of 0.4 mg/ml was achieved; from tissue
# T1 sequence (P07308 1-358): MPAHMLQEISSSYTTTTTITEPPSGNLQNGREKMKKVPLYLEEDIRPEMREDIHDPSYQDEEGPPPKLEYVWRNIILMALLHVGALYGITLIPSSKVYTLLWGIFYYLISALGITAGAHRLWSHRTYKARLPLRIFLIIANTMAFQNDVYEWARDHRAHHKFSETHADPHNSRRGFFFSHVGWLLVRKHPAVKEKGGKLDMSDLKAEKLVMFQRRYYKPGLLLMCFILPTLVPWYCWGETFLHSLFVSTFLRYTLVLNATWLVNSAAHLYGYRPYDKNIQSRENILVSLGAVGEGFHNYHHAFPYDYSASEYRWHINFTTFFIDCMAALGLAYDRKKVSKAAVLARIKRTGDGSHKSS
# Experiment: SCD assay with rat liver microsomes ([3H]stearoyl CoA, adapted from Talamo and Bloch)
# Assay type: biochemical
# Settings: Table 2 (Example 21, procedures of Example 20); rat liver microsomes, [3H]stearoyl CoA substrate
# Method in brief: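 Liver microsomes came from diet-induced male Sprague Dawley rats and were used at 0.2 mg/ml final. Assay buffer was Tris pH 7.2 with NADH, ATP, CoA, MgCl2 and 0.1% BSA. Compounds were preincubated 30 min, then reacted 45 min at room temperature with [3H]stearoyl-CoA; after TCA stop and Bio-Bead cleanup, supernatant radioactivity was counted by scintillation.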
row,Compound,IC50 [nM]
1,"CC(=O)OCC(=O)Nc1ccc2c(=O)n(C(C)c3ccc(Cl)c(Cl)c3)cnc2c1 (stereo not shown) [compound 10, 2-(3-(1-(3,4-dichlorophenyl)ethyl)-4-oxo-3,4-dihydroquinazolin-7-ylamino)-2-oxoethyl acetate]",130
2,"CC(c1ccc(Cl)c(Cl)c1)n1cnc2cc(NC(=O)CO)ccc2c1=O (stereo not shown) [compound 11, N-(3-(1-(3,4-dichlorophenyl)ethyl)-4-oxo-3,4-dihydroquinazolin-7-yl)-2-hydroxyacetamide]",170
3,"COc1cccc(Cn2cnc3ccc(NC(=O)OCc4ccccc4)cc3c2=O)c1 [compound 12, benzyl 3-(3-methoxybenzyl)-4-oxo-3,4-dihydroquinazolin-6-ylcarbamate]",1400
4,"CC(=O)OCC(=O)Nc1ccc2ncn(Cc3ccc(F)c(Cl)c3)c(=O)c2c1 [compound 13, 2-(3-(3-chloro-4-fluorobenzyl)-4-oxo-3,4-dihydroquinazolin-6-ylamino)-2-oxoethyl acetate]",1700
5,"O=C(Nc1ccc2ncn(Cc3ccc(F)c(C(F)(F)F)c3)c(=O)c2c1)OCc1ccccc1 [compound 14, benzyl 3-(4-fluoro-3-(trifluoromethyl)benzyl)-4-oxo-3,4-dihydroquinazolin-6-ylcarbamate]",310
6,"CC(=O)OCC(=O)Nc1ccc2ncn(Cc3ccc(F)c(C(F)(F)F)c3)c(=O)c2c1 [compound 15, 2-(3-(4-fluoro-3-(trifluoromethyl)benzyl)-4-oxo-3,4-dihydroquinazolin-6-ylamino)-2-oxoethyl acetate]",700
7,"O=C(CO)Nc1ccc2ncn(Cc3ccc(F)c(C(F)(F)F)c3)c(=O)c2c1 [compound 16, N-(3-(4-fluoro-3-(trifluoromethyl)benzyl)-4-oxo-3,4-dihydroquinazolin-6-yl)-2-hydroxyacetamide]",920
8,"CC(=O)Nc1ccc2ncn(Cc3ccc(Cl)c(Cl)c3)c(=O)c2c1 [compound 17, N-(3-(3,4-dichlorobenzyl)-4-oxo-3,4-dihydroquinazolin-6-yl)acetamide]",3900
9,"CC(=O)Nc1ccc2ncn(Cc3ccc(F)c(F)c3)c(=O)c2c1 [compound 18, N-(3-(3,4-difluorobenzyl)-4-oxo-3,4-dihydroquinazolin-6-yl)acetamide]",26000
10,"CC(=O)Nc1ccc2ncn(Cc3ccc(C(F)(F)F)cc3)c(=O)c2c1 [compound 19, N-(4-oxo-3-(4-(trifluoromethyl)benzyl)-3,4-dihydroquinazolin-6-yl)acetamide]",28000
11,"Cc1ccc(Cn2cnc3ccc(NC(=O)OCc4ccccc4)cc3c2=O)cc1C [compound 20, benzyl 3-(3,4-dimethylbenzyl)-4-oxo-3,4-dihydroquinazolin-6-ylcarbamate]",230
12,"CC(=O)OCC(=O)Nc1ccc2ncn(Cc3ccc(C)c(C)c3)c(=O)c2c1 [compound 21, 2-(3-(3,4-dimethylbenzyl)-4-oxo-3,4-dihydroquinazolin-6-ylamino)-2-oxoethyl acetate]",470
13,"Cc1ccc(Cn2cnc3ccc(NC(=O)CO)cc3c2=O)cc1C [compound 22, N-(3-(3,4-dimethylbenzyl)-4-oxo-3,4-dihydroquinazolin-6-yl)-2-hydroxyacetamide]",280
14,"CC(c1ccc(Cl)c(Cl)c1)n1cnc2ccc(NC(=O)CO)cc2c1=O (stereo not shown) [compound 23, N-(3-(1-(3,4-dichlorophenyl)ethyl)-4-oxo-3,4-dihydroquinazolin-6-yl)-2-hydroxyacetamide]",210
15,"CC(=O)OCC(=O)Nc1ccc2ncn(CCCc3ccccc3)c(=O)c2c1 [compound 24, 2-oxo-2-(4-oxo-3-(3-phenylpropyl)-3,4-dihydroquinazolin-6-ylamino)ethyl acetate]",1300
16,"CCC(c1ccc(Cl)c(Cl)c1)n1cnc2ccc(NC(=O)COC(C)=O)cc2c1=O (stereo not shown) [compound 25, 2-(3-(1-(3,4-dichlorophenyl)propyl)-4-oxo-3,4-dihydroquinazolin-6-ylamino)-2-oxoethyl acetate]",500
17,"CCC(c1ccc(Cl)c(Cl)c1)n1cnc2ccc(NC(=O)CO)cc2c1=O (stereo not shown) [compound 26, N-(3-(1-(3,4-dichlorophenyl)propyl)-4-oxo-3,4-dihydroquinazolin-6-yl)-2-hydroxyacetamide]",3300
18,"O=C(CO)Nc1ccc2ncn(CCCc3ccccc3)c(=O)c2c1 [compound 27, 2-hydroxy-N-(4-oxo-3-(3-phenylpropyl)-3,4-dihydroquinazolin-6-yl)acetamide]",4500
19,"CC(=O)OCC(=O)Nc1ccc2ncn(Cc3ccccc3C(F)(F)F)c(=O)c2c1 [compound 28, 2-oxo-2-(4-oxo-3-(2-(trifluoromethyl)benzyl)-3,4-dihydroquinazolin-6-ylamino)ethyl acetate]",1500

row,Compound,IC50 [nM]
1,"O=C(CO)Nc1ccc2ncn(Cc3cccc(-c4ccccc4)c3)c(=O)c2c1 [compound 29, N-(3-(biphenyl-3-ylmethyl)-4-oxo-3,4-dihydroquinazolin-6-yl)-2-hydroxyacetamide]",3900
2,"CCC(c1ccc(Cl)c(Cl)c1)n1cnc2ccc(NC(=O)OCc3ccccc3)cc2c1=O (stereo not shown) [compound 30, benzyl 3-(1-(3,4-dichlorophenyl)propyl)-4-oxo-3,4-dihydroquinazolin-6-ylcarbamate]",1400
3,"O=C(CO)Nc1ccc2ncn(Cc3ccc4ccccc4c3)c(=O)c2c1 [compound 31, 2-hydroxy-N-(3-(naphthalen-2-ylmethyl)-4-oxo-3,4-dihydroquinazolin-6-yl)acetamide]",340
4,"O=C(Nc1ccc2ncn(Cc3ccc4ccccc4c3)c(=O)c2c1)OCc1ccccc1 [compound 32, benzyl 3-(naphthalen-2-ylmethyl)-4-oxo-3,4-dihydroquinazolin-6-ylcarbamate]",720
5,"O=C(CO)Nc1ccc2c(=O)n(Cc3ccc4ccccc4c3)cnc2c1 [compound 33, 2-hydroxy-N-(3-(naphthalen-2-ylmethyl)-4-oxo-3,4-dihydroquinazolin-7-yl)acetamide]",2800
6,"C[C@H](c1ccc(Cl)c(C(F)(F)F)c1)n1cnc2ccc(NC(=O)CO)cc2c1=O [compound 34, (R)—N-(3-(1-(4-chloro-3-(trifluoromethyl)phenyl)ethyl)-4-oxo-3,4-dihydroquinazolin-6-yl)-2-hydroxyacetamide]",480
7,"C[C@@H](c1ccc(Cl)c(Cl)c1)n1cnc2cc(NC(=O)CO)ccc2c1=O [compound 35, (S)—N-(3-(1-(3,4-dichlorophenyl)ethyl)-4-oxo-3,4-dihydroquinazolin-7-yl)-2-hydroxyacetamide]",1800
8,"C[C@H](c1ccc(Cl)c(Cl)c1)n1cnc2cc(NC(=O)CO)ccc2c1=O [compound 36, (R)—N-(3-(1-(3,4-dichlorophenyl)ethyl)-4-oxo-3,4-dihydroquinazolin-7-yl)-2-hydroxyacetamide]",58
9,"O=C(CO)Nc1ccc2ncn(CCc3ccc(Cl)cc3)c(=O)c2c1 [compound 37, N-(3-(4-chlorophenethyl)-4-oxo-3,4-dihydroquinazolin-6-yl)-2-hydroxyacetamide]",20
10,"O=C(CO)Nc1ccc2ncn(CCc3cccc(Cl)c3)c(=O)c2c1 [compound 38, N-(3-(3-chlorophenethyl)-4-oxo-3,4-dihydroquinazolin-6-yl)-2-hydroxyacetamide]",5800
11,"O=C(CO)Nc1ccc2ncn(CCc3ccc(Cl)cc3Cl)c(=O)c2c1 [compound 39, N-(3-(2,4-dichlorophenethyl)-4-oxo-3,4-dihydroquinazolin-6-yl)-2-hydroxyacetamide]",4900
12,"O=C(Nc1ccc2ncn(Cc3cccc(C(F)(F)F)c3)c(=O)c2c1)OCc1ccccc1 [compound 40, benzyl 4-oxo-3-(3-(trifluoromethyl)benzyl)-3,4-dihydroquinazolin-6-ylcarbamate]",1400
13,"O=C(Nc1ccc2ncn(CCCOc3ccccc3C(F)(F)F)c(=O)c2c1)OCc1ccccc1 [compound 41, benzyl 4-oxo-3-(3-(2-(trifluoromethyl)phenoxy)propyl)-3,4-dihydroquinazolin-6-ylcarbamate]",69
14,"O=C(CO)Nc1ccc2ncn(CCOc3cc(Cl)ccc3Cl)c(=O)c2c1 [compound 42, N-(3-(2-(2,5-dichlorophenoxy)ethyl)-4-oxo-3,4-dihydroquinazolin-6-yl)-2-hydroxyacetamide]",290
15,"O=C(CO)Nc1ccc2ncn(CCCOc3cc(Cl)ccc3Cl)c(=O)c2c1 [compound 43, N-(3-(3-(2,5-dichlorophenoxy)propyl)-4-oxo-3,4-dihydroquinazolin-6-yl)-2-hydroxyacetamide]",55
16,"O=C(Nc1ccc2ncn(CCCOc3cc(Cl)ccc3Cl)c(=O)c2c1)OCc1ccccc1 [compound 44, benzyl 3-(3-(2,5-dichlorophenoxy)propyl)-4-oxo-3,4-dihydroquinazolin-6-ylcarbamate]",55
17,"O=C(CO)Nc1ccc2ncn(CCCOc3ccccc3C(F)(F)F)c(=O)c2c1 [compound 45, 2-hydroxy-N-(4-oxo-3-(3-(2-(trifluoromethyl)phenoxy)propyl)-3,4-dihydroquinazolin-6-yl)acetamide]",120
18,"O=C(Nc1ccc2ncn(CCCOc3ccccc3F)c(=O)c2c1)OCc1ccccc1 [compound 46, benzyl 3-(3-(2-fluorophenoxy)propyl)-4-oxo-3,4-dihydroquinazolin-6-ylcarbamate]",490
